Assay results published in ChEMBL document CHEMBL5316298, “Discovery of Amphiphilic Xanthohumol Derivatives as Membrane-Targeting Antimicrobials against Methicillin-Resistant Staphylococcus aureus” (J Med Chem, 2023).
Converted amounts (≈) assume the structure as drawn.

Experiments:
[1] = test system: Staphylococcus aureus; experiment: Antibacterial activity against methicillin-resistant Staphylococcus aureus clinical isolate 9 incubated for 16 to 18 hrs by CLSI-based microbroth dilution method; assay type: functional; conditions: time 16-18 hrs
[2] = test system: Staphylococcus aureus; experiment: Antibacterial activity against methicillin-resistant Staphylococcus aureus clinical isolate 2 incubated for 16 to 18 hrs by CLSI-based microbroth dilution method; assay type: functional; conditions: time 16-18 hrs
[3] = Hemolytic activity in sheep erythrocytes incubated for 1 hr by absorbance based analysis; assay type: toxicity, cell-based, Ovis aries, Erythrocyte
[4] = test system: Staphylococcus aureus; experiment: Antibacterial activity against methicillin-resistant Staphylococcus aureus clinical isolate 5 incubated for 16 to 18 hrs by CLSI-based microbroth dilution method; assay type: functional; conditions: time 16-18 hrs
[5] = test system: Staphylococcus aureus; experiment: Antibacterial activity against methicillin-resistant Staphylococcus aureus clinical isolate 10 incubated for 16 to 18 hrs by CLSI-based microbroth dilution method; assay type: functional; conditions: time 16-18 hrs
[6] = test system: Staphylococcus aureus; experiment: Antibacterial activity against methicillin-resistant Staphylococcus aureus clinical isolate 8 incubated for 16 to 18 hrs by CLSI-based microbroth dilution method; assay type: functional; conditions: time 16-18 hrs
[7] = test system: Staphylococcus aureus; experiment: Antibacterial activity against methicillin-resistant Staphylococcus aureus clinical isolate 1 incubated for 16 to 18 hrs by CLSI-based microbroth dilution method; assay type: functional; conditions: time 16-18 hrs
[8] = test system: Staphylococcus aureus; experiment: Antibacterial activity against methicillin-resistant Staphylococcus aureus clinical isolate 4 incubated for 16 to 18 hrs by CLSI-based microbroth dilution method; assay type: functional; conditions: time 16-18 hrs
[9] = test system: Staphylococcus aureus; experiment: Antibacterial activity against methicillin-resistant Staphylococcus aureus clinical isolate 3 incubated for 16 to 18 hrs by CLSI-based microbroth dilution method; assay type: functional; conditions: time 16-18 hrs
[10] = test system: Staphylococcus aureus; experiment: Antibacterial activity against methicillin-resistant Staphylococcus aureus clinical isolate 6 incubated for 16 to 18 hrs by CLSI-based microbroth dilution method; assay type: functional; conditions: time 16-18 hrs
[11] = test system: Staphylococcus aureus; experiment: Antibacterial activity against Staphylococcus aureus ATCC 29213 incubated for 16 to 18 hrs by CLSI-based microbroth dilution method; assay type: functional; conditions: time 16-18 hrs
[12] = test system: Staphylococcus aureus; experiment: Antibacterial activity against methicillin-resistant Staphylococcus aureus clinical isolate 7 incubated for 16 to 18 hrs by CLSI-based microbroth dilution method; assay type: functional; conditions: time 16-18 hrs

SMILES	MIC [1]	MIC [2]	HC50 at 1 h [3]	MIC [4]	MIC [5]	MIC [6]	MIC [7]	MIC [8]	MIC [9]	MIC [10]	MIC [11]	MIC [12]
CCCNC(=O)C[N+](C)(C)CCCOc1ccc(/C=C/C(=O)c2c(OC)cc3c(c2O)C=CC(C)(C)O3)cc1.[Br-]	2 µg/mL	2 µg/mL	210 µg/mL	2 µg/mL	4 µg/mL	2 µg/mL	4 µg/mL	4 µg/mL	2 µg/mL	2 µg/mL	4 µg/mL	2 µg/mL
COc1cc2c(c(O)c1C(=O)/C=C/c1ccc(OCCCCC[N+](C)(C)CC(=O)N(C(C)C)C(C)C)cc1)C=CC(C)(C)O2.[Br-]	2 µg/mL	2 µg/mL	229 µg/mL	2 µg/mL	2 µg/mL	4 µg/mL	2 µg/mL	1 µg/mL	2 µg/mL	1 µg/mL	2 µg/mL	2 µg/mL
CCCCNC(=O)C[N+](C)(C)CCCCCOc1ccc(/C=C/C(=O)c2c(OC)cc3c(c2O)C=CC(C)(C)O3)cc1.[Br-]	4 µg/mL	2 µg/mL	826 µg/mL	1 µg/mL	2 µg/mL	2 µg/mL	2 µg/mL	2 µg/mL	2 µg/mL	1 µg/mL	2 µg/mL	2 µg/mL
CCCCCNC(=O)C[N+](C)(C)CCCCCOc1ccc(/C=C/C(=O)c2c(OC)cc3c(c2O)C=CC(C)(C)O3)cc1.[Br-]	8 µg/mL	2 µg/mL	301 µg/mL	2 µg/mL	4 µg/mL	2 µg/mL	2 µg/mL	2 µg/mL	2 µg/mL	2 µg/mL	2 µg/mL	4 µg/mL
CCCCCNC(=O)C[N+](C)(C)CCCCOc1ccc(/C=C/C(=O)c2c(OC)cc3c(c2O)C=CC(C)(C)O3)cc1.[Br-]	4 µg/mL	4 µg/mL	83.4 µg/mL	4 µg/mL	4 µg/mL	4 µg/mL	4 µg/mL	8 µg/mL	4 µg/mL	2 µg/mL	4 µg/mL	4 µg/mL
COc1cc2c(c(O)c1C(=O)/C=C/c1ccc(OCCC[N+](C)(C)CC(=O)N(C(C)C)C(C)C)cc1)C=CC(C)(C)O2.[Br-]	2 µg/mL	2 µg/mL	158 µg/mL	1 µg/mL	4 µg/mL	2 µg/mL	2 µg/mL	2 µg/mL	1 µg/mL	1 µg/mL	4 µg/mL	2 µg/mL
COc1cc2c(c(O)c1C(=O)/C=C/c1ccc(OCCC[N+](C)(C)CC(=O)N3CCOCC3)cc1)C=CC(C)(C)O2.[Br-]	8 µg/mL	8 µg/mL	> 1280 µg/mL	8 µg/mL	8 µg/mL	8 µg/mL	8 µg/mL	16 µg/mL	8 µg/mL	8 µg/mL	8 µg/mL	4 µg/mL
COc1cc2c(c(O)c1C(=O)/C=C/c1ccc(OCCCC[N+](C)(C)CC(=O)N3CCOCC3)cc1)C=CC(C)(C)O2.[Br-]	8 µg/mL	8 µg/mL	> 1280 µg/mL	4 µg/mL	16 µg/mL	4 µg/mL	8 µg/mL	8 µg/mL	4 µg/mL	4 µg/mL	8 µg/mL	4 µg/mL
CCCCCCNC(=O)C[N+](C)(C)CCCCCOc1ccc(/C=C/C(=O)c2c(OC)cc3c(c2O)C=CC(C)(C)O3)cc1.[Br-]	4 µg/mL	2 µg/mL	245 µg/mL	2 µg/mL	2 µg/mL	4 µg/mL	2 µg/mL	2 µg/mL	2 µg/mL	2 µg/mL	4 µg/mL	4 µg/mL
CCCCCCNC(=O)C[N+](C)(C)CCCCOc1ccc(/C=C/C(=O)c2c(OC)cc3c(c2O)C=CC(C)(C)O3)cc1.[Br-]	4 µg/mL	2 µg/mL	938 µg/mL	2 µg/mL	2 µg/mL	4 µg/mL	2 µg/mL	8 µg/mL	2 µg/mL	1 µg/mL	2 µg/mL	4 µg/mL
COc1cc2c(c(O)c1C(=O)/C=C/c1ccc(OCCC[N+](C)(C)CC(=O)N(CC(C)C)CC(C)C)cc1)C=CC(C)(C)O2.[Br-]	2 µg/mL	4 µg/mL	447 µg/mL	1 µg/mL	4 µg/mL	2 µg/mL	2 µg/mL	2 µg/mL	1 µg/mL	1 µg/mL	2 µg/mL	1 µg/mL
CCCCCNC(=O)C[N+](C)(C)CCCOc1ccc(/C=C/C(=O)c2c(OC)cc3c(c2O)C=CC(C)(C)O3)cc1.[Br-]	4 µg/mL	4 µg/mL	169 µg/mL	2 µg/mL	4 µg/mL	4 µg/mL	2 µg/mL	4 µg/mL	2 µg/mL	4 µg/mL	2 µg/mL	4 µg/mL
CCCCN(CCCC)C(=O)C[N+](C)(C)CCCCCOc1ccc(/C=C/C(=O)c2c(OC)cc3c(c2O)C=CC(C)(C)O3)cc1.[Br-]	8 µg/mL	2 µg/mL	409 µg/mL	2 µg/mL	2 µg/mL	4 µg/mL	2 µg/mL	8 µg/mL	4 µg/mL	1 µg/mL	2 µg/mL	2 µg/mL
COc1cc2c(c(O)c1C(=O)/C=C/c1ccc(OCCCCC[N+](C)(C)CC(=O)N3CCOCC3)cc1)C=CC(C)(C)O2.[Br-]	4 µg/mL	4 µg/mL	> 1280 µg/mL	4 µg/mL	2 µg/mL	4 µg/mL	2 µg/mL	4 µg/mL	4 µg/mL	2 µg/mL	8 µg/mL	4 µg/mL
CCCNC(=O)C[N+](C)(C)CCCCCOc1ccc(/C=C/C(=O)c2c(OC)cc3c(c2O)C=CC(C)(C)O3)cc1.[Br-]	8 µg/mL	8 µg/mL	974 µg/mL	1 µg/mL	2 µg/mL	2 µg/mL	2 µg/mL	2 µg/mL	2 µg/mL	1 µg/mL	4 µg/mL	2 µg/mL
COc1cc2c(c(O)c1C(=O)/C=C/c1ccc(OCCCC[N+](C)(C)CC(=O)N3CCSCC3)cc1)C=CC(C)(C)O2.[Br-]	2 µg/mL	2 µg/mL	705 µg/mL	4 µg/mL	2 µg/mL	4 µg/mL	4 µg/mL	4 µg/mL	2 µg/mL	2 µg/mL	4 µg/mL	4 µg/mL
COc1cc2c(c(O)c1C(=O)/C=C/c1ccc(OCCCCC[N+](C)(C)CC(=O)N(CC(C)C)CC(C)C)cc1)C=CC(C)(C)O2.[Br-]	2 µg/mL	1 µg/mL	374 µg/mL	2 µg/mL	2 µg/mL	2 µg/mL	4 µg/mL	2 µg/mL	2 µg/mL	1 µg/mL	2 µg/mL	2 µg/mL
COc1cc2c(c(O)c1C(=O)/C=C/c1ccc(OCCCC[N+](C)(C)CC(=O)N(CC(C)C)CC(C)C)cc1)C=CC(C)(C)O2.[Br-]	2 µg/mL	2 µg/mL	333 µg/mL	1 µg/mL	4 µg/mL	2 µg/mL	2 µg/mL	4 µg/mL	1 µg/mL	1 µg/mL	4 µg/mL	1 µg/mL
CCCCCCNC(=O)C[N+](C)(C)CCCOc1ccc(/C=C/C(=O)c2c(OC)cc3c(c2O)C=CC(C)(C)O3)cc1.[Br-]	1 µg/mL	2 µg/mL	97.9 µg/mL	2 µg/mL	1 µg/mL	2 µg/mL	2 µg/mL	2 µg/mL	2 µg/mL	4 µg/mL	2 µg/mL	4 µg/mL
CCCCN(CCCC)C(=O)C[N+](C)(C)CCCCOc1ccc(/C=C/C(=O)c2c(OC)cc3c(c2O)C=CC(C)(C)O3)cc1.[Br-]	1 µg/mL	2 µg/mL	466 µg/mL	2 µg/mL	2 µg/mL	4 µg/mL	1 µg/mL	2 µg/mL	1 µg/mL	1 µg/mL	2 µg/mL	4 µg/mL
COc1cc2c(c(O)c1C(=O)/C=C/c1ccc(OCCCC[N+](C)(C)CC(=O)N(C(C)C)C(C)C)cc1)C=CC(C)(C)O2.[Br-]	2 µg/mL	2 µg/mL	657 µg/mL	2 µg/mL	2 µg/mL	2 µg/mL	8 µg/mL	2 µg/mL	2 µg/mL	1 µg/mL	2 µg/mL	2 µg/mL
COc1cc2c(c(O)c1C(=O)/C=C/c1ccc(O)cc1)C=CC(C)(C)O2 [XANTHOHUMOL C]	8 µg/mL (≈ 22.7 µM)	4 µg/mL (≈ 11.4 µM)	222 µg/mL	4 µg/mL (≈ 11.4 µM)	4 µg/mL (≈ 11.4 µM)	4 µg/mL (≈ 11.4 µM)	4 µg/mL (≈ 11.4 µM)	4 µg/mL (≈ 11.4 µM)	4 µg/mL (≈ 11.4 µM)	8 µg/mL (≈ 22.7 µM)	4 µg/mL (≈ 11.4 µM)	4 µg/mL (≈ 11.4 µM)
